Among the test systems are NCI-H226 lung; NCI-H23 lung; HOP-18 NSCLC; NCI-H460 lung; DMS 114 small cell lung; DLD-1 colon; XF 498 CNS; SK-MEL-5 melanoma; SNB-78 CNS; HOP-92 NSCLC; NCI-H522 lung; MCF7 breast; OVCAR-5 ovarian; COLO 205 colon; HOP-62 NSCLC; HL-60(TB) leukemia; SW-620 colon; SR leukemia; PC-3 prostate.
Common to all, as to assay: NCI tumour cell line growth inhibition, 48 h

SMILES strings stand for the structures.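 In this assay, cells in 96-well plates receive the compound at five concentrations for 48 hours. Endpoints are linearly interpolated between the surrounding concentrations. At the GI50, growth is halved. Definition used: TGI = concentration required for complete inhibition of growth.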

For the compound `Nc1ccc(N=Nc2ccc(/C=C/c3ccc(N=Nc4ccc(N)c5ccc(S(=O)(=O)O)cc45)cc3S(=O)(=O)O)c(S(=O)(=O)O)c2)c2cc(S(=O)(=O)O)ccc12`, the TGI in the experiment with NCI-H226 lung, in the experiment on NCI-H23 lung, with HOP-18 NSCLC, in the experiment on NCI-H460 lung, with DMS 114 small cell lung and in the experiment on DLD-1 colon was above 100 µM throughout. The TGI in the experiment on XF 498 CNS, in the experiment on SK-MEL-5 melanoma, in the experiment on SNB-78 CNS, in the experiment with HOP-92 NSCLC, in the experiment on NCI-H522 lung and in the experiment on MCF7 breast was above 100 µM throughout. Further, the TGI in the experiment with OVCAR-5 ovarian, in the experiment on COLO 205 colon, with HOP-62 NSCLC, with HL-60(TB) leukemia and in the experiment with SW-620 colon was above 100 µM each time.

In the case of `O=c1c2cc(I)ccc2nc(-c2cccs2)n1Nc1ccccc1`, the TGI with SR leukemia was above 100 µM; in the experiment on NCI-H226 lung it was above 100 µM; in the experiment with NCI-H23 lung, 91 µM; in the experiment on NCI-H460 lung, above 100 µM; with SK-MEL-5 melanoma, above 100 µM; in the experiment with PC-3 prostate, above 100 µM. Also, the TGI in the experiment on NCI-H522 lung is above 100 µM; in the experiment with MCF7 breast, above 100 µM; in the experiment on OVCAR-5 ovarian, above 100 µM; with COLO 205 colon, 3.66 µM; in the experiment with HOP-62 NSCLC, 68.6 µM; in the experiment with HL-60(TB) leukemia it was above 100 µM. Moreover, in the experiment on SW-620 colon, the TGI was above 100 µM. Besides, the GI50 with MCF7 breast is 1.99 µM.

For `CC(SC1=CC(=O)c2c(Cl)ccc(O)c2C1=O)C(=O)O` (centres undefined), the TGI in the experiment with SR leukemia was determined as 37.9 µM; with NCI-H226 lung it was 57.3 µM; in the experiment with HOP-18 NSCLC, 75.8 µM; in the experiment on NCI-H460 lung, 69.4 µM; in the experiment on DMS 114 small cell lung it was 38.4 µM; with DLD-1 colon it was 34.7 µM. The TGI was 34.2 µM in the experiment with XF 498 CNS; 27.5 µM with SK-MEL-5 melanoma; 26.3 µM with SNB-78 CNS; 38.6 µM in the experiment on HOP-92 NSCLC; 45.1 µM with COLO 205 colon; 12.2 µM with HL-60(TB) leukemia. For the same compound, the TGI with SW-620 colon was found to be 36.2 µM.

`CC1CN=C(NCc2ccccc2)S1` (centres undefined): the TGI in the experiment on SR leukemia, in the experiment with NCI-H226 lung, with NCI-H23 lung, in the experiment with NCI-H460 lung, in the experiment on NCI-H522 lung and in the experiment on MCF7 breast was above 100 µM each time. Further, the TGI in the experiment with OVCAR-5 ovarian, in the experiment on HOP-62 NSCLC and with HL-60(TB) leukemia was above 100 µM throughout.

In the case of `C1CSCC2(COC2)CS1`, the TGI in the experiment on SR leukemia, in the experiment on NCI-H226 lung, with NCI-H23 lung, in the experiment with NCI-H460 lung, with SK-MEL-5 melanoma and with PC-3 prostate was above 100 µM each time. Moreover, the TGI in the experiment on HOP-92 NSCLC, with NCI-H522 lung, in the experiment with MCF7 breast, with COLO 205 colon and in the experiment on SW-620 colon was above 100 µM in each case.
